Experimental data published in patent US20230265524A1, “IMMUNOGENIC RETROELEMENTS AND THEIR USE IN CANCER THERAPY” (UNIVERSITY HEALTH NETWORK, priority 2020, published 2023).

Columns and labels:
MDA5 = test: MDA5-protection assay followed by RNA sequencing; format: cell-based, human
Protocol: A-C, Percentage of non-repeats and several families of Repetitive Elements in the total cytoplasmic fraction (‘Total CytoRNA’) and in the MDA5-protected fraction (‘MDA5-protected’) at the mock-treated baseline condition (A) and after 5-AZA-CdR treatment at 300 nM for 5 days, p<2.2e-16 (B). Treatment-induced immunogenic RNAs' refers to transcripts present in 5-AZA-CdR treated condition but not present in the baseline mock-treated condition (i.e. induced by the treatment), p<2.2e-16 (C). Each plot is the average percentage of two replicates. P-values represent the Fisher Exact test for enrichment of SINEs and depletion of non-repeats in immunogenic RNAs (5-AZA-CdR) and Treatment-induced immunogenic RNAs as compared to the MDA5-protected baseline immunogenic RNAs.
D-E, Counts of the expressed Alus in terms of the Log10 Fold change of their MDA5-protected expression over their Total CytoRNA expression. IR-Alus that are MDA5 dsRNA agonists have positive values on the x-axis. […] The color code represents Alus making Inverted Repeats pairs (gray) and Non-IR pairs (black) for Baseline immunogenic RNAs (n=187 Non-IR Alus and 1,602 IR-Alus) (D) and for the Treatment-induced immunogenic RNAs (n=992 Non-IR Alus and 5,199 IR-Alus) (E).
A, Venn-diagram showing the IR-Alu pairs at the Baseline (n=1,040), Immunogenic (5-AZA-CdR) (n=4,482) and Treatment-induced (n=3,687) conditions.
Viral mimicry response to epigenetic therapy is dependent on activation of the MDA5 pattern recognition receptor by endogenous dsRNAs^1,6,8. Therefore, to directly identify drug-induced immunogenic retroelements, we performed an MDA5-protection assay^19, followed by RNA sequencing. […] In contrast, only 1.71% of MDA5-protected RNAs in mock-treated samples were LTRs and 6.40% were LINEs (FIG. 2A). For DNMTi-treated samples, only 1.81% were LTRs and 7.56% were LINEs (FIG. 2B).
Then, to identify the immunogenic retroelements induced only by DNMTi treatment (“Treatment-Induced immunogenic RNAs”), we excluded those that were expressed in both the mock- and DNMTi-treated samples (FIG. 3A). Alu retroelements represented 88.72% of all MDA5-protected RNAs present only in DNMTi treated samples (“Treatment-Induced immunogenic RNAs”) (FIG. 2C). Treatment-induced immunogenic RNAs also included non-repeats (5.15%), LINEs (3.86%) and LTRs elements (1.37%) (FIG. 2C). Overall, our results reveal that while many dsRNA species are induced after DNMTi, Alu elements, but not LTRs/ERVs as previously assumed^1,2,4-6,20, are the major source of immunogenic dsRNA induced upon epigenetic therapy.
To uncover the molecular mechanisms of how repetitive elements generate immunogenic dsRNA, we examined all repeats in MDA5-protected transcripts and searched for repeat pairs within a 3 Kb window. […] Moreover, MDA5-protected RNA contained higher levels of IR-Alus compared to non-IR (direct repeat) Alus (FIG. 2D-E). The expression of baseline IR-Alus was maintained but not enhanced after 5-AZA-CdR treatment (FIG. 2D, FIG. 3D) while treatment-induced IR-Alu hybrids became highly expressed in the MDA5-protected RNA only after treatment with 5-AZA-CdR (FIG. 2E, FIG. 3E). […] Moreover, the majority of IR-Alu pairs were unidirectionally transcribed either in the sense (both repeats in the positive strand: “+/+”) or antisense (both repeats in the negative strand: “−/−”) direction in both baseline (FIG. 2H) and treatment-induced dsRNA (FIG. 2I).

[1] = test system: HT29 colorectal cancer cell lines; test: ISG relative expression in HT29 cells; format: cell-based, human; details: HT29, ADAR1 KD vs WT, 300 nM for 5 days
Protocol: D) Interferon-stimulated genes (MDA5, ISG15 and DDX58) relative expression in ADAR1^WT and ADAR1^KD HT29 colorectal cancer cell lines treated with 300 nM 5-AZA-CdR for 5 days. Data are mean±s.e.m. (n=3 from three independent experiments). *P<0.05, **P<0.01, ***P<0.001, ****P<0.0001, Tukey-corrected two-way ANOVA.
Based on these findings, we hypothesized that ADAR1 depletion would synergize with the viral mimicry response induced by DNMTi treatment. To assess how ADAR1 depletion affects 5-AZA-CdR treated samples, we performed RNA-seq analyses in patient-derived CRC cells. […] As a molecular read-out of dsRNA pattern recognition activation, we measured MAVS aggregation in the mitochondrial fraction of cell lysates^34. […] Taken together, our findings establish that ADAR1 acts as a negative feedback loop, restricting the viral mimicry response induced by DNMTi treatment in cancer cells.

[2] = test system: patient-derived CRC cells; test: in vivo LDA measuring tumour-initiation potential; parameters: species or system NSG mice
Protocol: F Schematic representation of in vivo LDA measuring tumour-initiation potential. NSG mice were injected with 10,000 cells (n=8 tumours), 1,000 cells (n=8 tumours), 100 cells (n=8 tumours) and 10 cells (n=16 tumours).
G, Tumour-initiating cell frequency from the in vivo LDA of patient-derived CRC cells for each condition. ADAR1WT 5-AZA-CdR vs ADAR1KDA 5-AZA-CdR P=0.00862; ADAR1WT 5-AZA-CdR vs ADAR1KDB 5-AZA-CdR P=0.009; chi-square test.
One of the major challenges facing conventional chemotherapy is the persistence of cancer initiating cells (CICs), often resulting in relapse^38-40. We and others have previously shown that 5-AZA-CdR treatment can target colorectal cancer CICs by inducing the viral mimicry response^1,41. We therefore tested whether ADAR1^KD by itself or in combination with 5-AZA-CdR can decrease tumour initiation. To this end, we first employed an in vitro sphere initiation assay followed by limiting dilution analysis (LDA) using patient-derived CRC cells. […] In addition, we performed in vivo tumour initiation assays by injecting serially diluted patient-derived CRC cells into NSG immunodeficient mice and inspected tumour engraftment for up to 6 months after injection (FIG. 12F).

[3] = MDA5-protected RNAs present only in DNMTi treated samples
[4] = MDA5-protected, induced by DNMTi

## Nc1ncn([C@H]2C[C@H](O)[C@@H](CO)O2)c(=O)n1 [5-AZA-CdR]
MDA5; Baseline n=1,040
  number of IR-Alu pairs, Immunogenic (5-AZA-CdR) condition: 4,482
MDA5; DNMTi-treated samples, mock-treated 1.71%
  LTRs in MDA5-protected RNAs: 1.81%
MDA5; DNMTi-treated samples, mock-treated 6.40%
  LINEs in MDA5-protected RNAs: 7.56%
MDA5; Immunogenic RNAs (5-AZA-CdR), 300 nM for 5 days, mock-treated 53.03%
  Alus in the MDA5-protected RNA: 72.33%
MDA5; [3]
  Alu retroelements among Treatment-Induced immunogenic RNAs: 88.72%
  LINEs among Treatment-induced immunogenic RNAs: 3.86%
  LTRs elements among Treatment-induced immunogenic RNAs: 1.37%
  non-repeats among Treatment-induced immunogenic RNAs: 5.15%
MDA5; [4]
  treatment-induced IR-Alu pairs within intergenic regions: 16%
  treatment-induced IR-Alu pairs within introns: 70%
MDA5; present after 5-AZA-CdR, not at baseline
  number of IR-Alu pairs, Treatment-induced condition: 3,687
[1]
  expression of IFN stimulated genes (ISGs): enhanced upon ADAR1 depletion
[2]; ADAR1^KDA, 10 cells injected
  Number of Engrafted tumours/number of injected tumours: 0/16
[2]; ADAR1^KDA, 100 cells injected
  Number of Engrafted tumours/number of injected tumours: 0/8
[2]; ADAR1^KDA, 1,000 cells injected
  Number of Engrafted tumours/number of injected tumours: 3/8
[2]; ADAR1^KDA, 10,000 cells injected
  Number of Engrafted tumours/number of injected tumours: 5/8
[2]; ADAR1^KDA/B cells relative to wild-type, up to 6 months
  tumour engraftment potential: substantially reduced tumour engraftment potential
[2]; ADAR1^KDB, 10 cells injected
  Number of Engrafted tumours/number of injected tumours: 0/16
[2]; ADAR1^KDB, 100 cells injected
  Number of Engrafted tumours/number of injected tumours: 0/8
[2]; ADAR1^KDB, 1,000 cells injected
  Number of Engrafted tumours/number of injected tumours: 1/8
[2]; ADAR1^KDB, 10,000 cells injected
  Number of Engrafted tumours/number of injected tumours: 6/8
[2]; ADAR1^WT, 10 cells injected
  Number of Engrafted tumours/number of injected tumours: 0/16
[2]; ADAR1^WT, 100 cells injected
  Number of Engrafted tumours/number of injected tumours: 3/8
[2]; ADAR1^WT, 1,000 cells injected
  Number of Engrafted tumours/number of injected tumours: 5/8
[2]; ADAR1^WT, 10,000 cells injected
  Number of Engrafted tumours/number of injected tumours: 7/8
